{"source": "patent US20180020662A1", "about": "“Substituted 1-cycloalkyl-2-oxotetrahydroquinolin-6-ylsulfonamides or salts thereof and use thereof to increase stress tolerance in plants” (BAYER CROPSCIENCE AKTIENGESELLSCHAFT, priority 2015, published 2018)"}
{"tested_on": "Triticum aestivum", "assay": "Drought stress test on potted crop plants, spray application, visual scoring against stressed control plants", "assay_type": "in vivo", "set-up": "key: 0: no positive effect; +: slight positive effect; ++: clear positive effect; +++: strong positive effect", "details": "dosage 250 g/ha, mean of at least three repeats", "procedure": "Seeds of monocotyledonous and dicotyledonous crop plants were sown in sandy loam in plastic pots, covered with soil or sand and cultivated in a greenhouse under good growth conditions. The test plants are treated at the early leaf stage (BBCH10-BBCH13). To assure uniform water supply before commencement of stress, the potted plants were supplied with water by dam irrigation prior to substance application. The inventive compounds were first formulated as wettable powders (WP) or dissolved in a solvent mixture. The further dilution was effected with water supplemented with 0.2% wetting agent (e.g. agrotin). The finished spray liquor was sprayed onto the green parts of the plant at an equivalent water application rate of 600 I/ha. Substance application was followed immediately by stress treatment of the plants. Drought stress was induced by gradual drying out under the following conditions: “Day”: 14 hours with illumination at […]. “Night”: 10 hours without illumination at […]. The duration of the respective stress phases was guided mainly by the condition of the stressed control plants. It was ended (by re-irrigating and transfer to a greenhouse with good growth conditions) as soon as irreversible damage was observed on the stressed control plants. The end of the stress phase was followed by an about 4-7-day recovery phase, during which the plants were once again kept under good growth conditions in a greenhouse. The duration of the recovery phase was guided mainly by when the trial plants had attained a state which enabled visual scoring of potential effects, and was therefore variable. Once this juncture had been reached, the appearance of the plants treated with test substances was recorded in comparison to the stressed control plants by the following categories: • 0 no positive effect • + slight positive effect • ++ clear positive effect • +++ strong positive effect In order to rule out any influence on the effects observed by any fungicidal or insecticidal action of the test compounds, it was additionally ensured that the tests proceeded without fungal infection or insect infestation. The values reported in tables A-1 and A-2 below are mean values of the results from at least three repeats. Effects of selected compounds of the general formula (I) under drought stress according to the following tables A-1 and A-2: In the above tables: BRSNS =Brassica napus TRZAS =Triticum aestivum"}
{"smiles": "CC1CCC1N1C(=O)CCc2cc(NS(=O)(=O)c3ccc(C#N)cc3)ccc21", "note": "(stereo not drawn) [A38-45]", "Effect (TRZAS)": "+"}
{"biological_target": "T1, phosphatase ABI1 via the co-regulator RCAR11/PYR1 (Arabidopsis thaliana, UniProt O49686+P49597)", "T1 sequence (O49686 1-191)": "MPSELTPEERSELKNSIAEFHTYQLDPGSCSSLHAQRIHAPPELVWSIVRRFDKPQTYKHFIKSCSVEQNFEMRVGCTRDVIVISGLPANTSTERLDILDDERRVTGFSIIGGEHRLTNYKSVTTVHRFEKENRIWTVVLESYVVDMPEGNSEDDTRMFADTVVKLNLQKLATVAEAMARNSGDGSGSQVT", "T1 sequence (P49597 1-434)": "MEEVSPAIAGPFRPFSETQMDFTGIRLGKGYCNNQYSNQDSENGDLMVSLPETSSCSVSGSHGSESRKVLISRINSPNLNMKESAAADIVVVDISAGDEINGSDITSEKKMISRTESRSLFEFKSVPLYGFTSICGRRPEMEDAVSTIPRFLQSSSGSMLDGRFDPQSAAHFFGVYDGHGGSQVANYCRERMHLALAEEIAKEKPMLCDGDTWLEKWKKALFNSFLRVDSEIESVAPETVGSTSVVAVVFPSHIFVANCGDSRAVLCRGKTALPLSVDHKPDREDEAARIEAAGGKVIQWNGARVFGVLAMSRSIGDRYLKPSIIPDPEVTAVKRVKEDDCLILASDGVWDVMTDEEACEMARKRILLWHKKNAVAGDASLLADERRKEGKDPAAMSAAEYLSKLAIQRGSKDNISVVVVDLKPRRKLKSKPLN", "assay": "In vitro assay: inhibition of ABI1 dephosphorylation of 4-methylumbelliferyl phosphate (MUP), fluorescence", "assay_type": "biochemical", "details": "concentration of 5 mM of the substance in DMSO and water, 35° C., 20 minutes", "text": "Effects of the phytohormone abscisic acid (ABA) on the behavior of plants under abiotic stress and the mechanism of action of ABA are described in the literature (cf. Abrams et al., WO97/23441, Park et al. Science, 2009, 324, 1068; Grill et al. Science, 2009, 324, 1064; Tanokura et al. Biophysics, 2011, 7, 123; Schroeder et al. Plant J. 2010, 61, 290). Therefore, it is possible with the aid of a suitable in vitro test system to derive a correlation between the action of ABA and the stress response of a plant under abiotic stress. In the event of water deficiency (drought stress), plants form the phytohormone abscisic acid (ABA). This binds, along with a co-regulator (Regulatory Component of ABA-Receptor=RCAR according to Grill et al. Science, 2009, 324, 1064 or PYR/PYL according to Cutler et al. Science, 2009, 324, 1068), to a phosphatase (e.g. ABI1, a type 2C protein phosphatase, also abbreviated to PP2C) and inhibits its activity. As a result, a “downstream” kinase (e.g. SnRK2) is no longer dephosphorylated. This kinase, which is thus active, via phosphorylation of transcription factors (e.g. AREB/ABF, cf. Yoshida et al Plant J. 2010, 61, 672), switches on a genetic protection program to increase drought stress tolerance. The assay described hereinafter utilizes the inhibition of the phosphatase ABI1 via the co-regulator RCAR11/PYR1 aus Arabidopsis thaliana. For the determination of activity, the dephosphorylation of 4-methylumbelliferyl phosphate (MUP) was measured at 460 nm. The in vitro assay was conducted in Greiner 384-well PS microplates F-well, using two controls: a) 0.5% dimethyl sulfoxide (DMSO) and b) 5 μM abscisic acid (ABA). The assay described here was generally conducted with substance concentrations of the appropriate chemical test substances in a concentration range of 0.1 μM to 100 μM in a solution of DMSO and water. The substance solution thus obtained, if necessary, was stirred with esterase from porcine liver (EC 3.1.1.1) at room temperature for 3 h and centrifuged at 4000 rpm for 30 min. A total volume of 45 μl was introduced into each cavity of the microplate, having the following composition: • 1) 5 μl of substance solution, i.e. a) DMSO 5% or b) abscisic acid solution or c) the corresponding example compound of the general formula (I) dissolved in 5% DMSO. • 2) 20 μl of enzyme buffer mix, composed of a) 40% by vol. of enzyme buffer (10 ml contain equal proportions by volume of 500 mM Tris-HCl pH 8, 500 mM NaCl, 3.33 mM MnCl2, 40 mM dithiothreitol (DTT)), b) 4% by vol. of ABI1 dilution (protein stock solution was diluted so as to give, after addition, a final concentration in the assay of 0.15 μg ABI1/well), c) 4% by vol. of RCAR11 dilution (enzyme stock was diluted so as to give, on addition of the dilution to the enzyme buffer mix, a final concentration in the assay of 0.30 μg enzyme/well), d) 5% by vol. of Tween20 (1%), e) 47% by vol. H2O bi-dist. • 3) 20 μl of substrate mix, composed of a) 10% by vol. of 500 mM Tris-HCl pH 8, b) 10% by vol. of 500 mM NaCl, c) 10% by vol. of 3.33 mM MnCl2, d) 5% by vol. of 25 mM MUP, 5% by vol. of Tween20 (1%), 60% by vol. of H2O bi-dist.\nEnzyme buffer mix and substrate mix were made up 5 minutes prior to the addition and warmed to a temperature of 35° C. On completion of pipetting of all the solutions and on completion of mixing, the plate was incubated at 35° C. for 20 minutes. Finally, a relative fluorescence measurement was made at 35° C. with a BMG Labtech “POLARstar Optima” microplate reader using a 340/10 nm excitation filter and a 460 nm emission filter. The efficacy of the compounds of the general formula (I) is reported in the table which follows using abscisic acid […] as comparative substance (no. 38) according to the following classification: ++++(inhibition ≧90%), +++(90% >inhibition ≧70%), ++(70% >inhibition ≧50%), +(50% >inhibition ≧30%). […]"}
{"smiles": "CC1CC(N2C(=O)CCc3cc(NS(=O)(=O)Cc4cc(F)cc(F)c4)ccc32)C1", "note": "(stereo not drawn) [A26-164]", "ABI1 inhibition": "++++ (inhibition ≧90%)"}
{"smiles": "Cc1ccc(CS(=O)(=O)Nc2ccc3c(c2)CCC(=O)N3C2(C3CC3)CC2)cc1", "note": "[A3-152, N-{1-[1,1′-bi(cyclopropyl)-1-yl]-2-oxo-1,2,3,4-tetrahydroquinolin-6-yl}-1-(4-methylphenyl)methanesulfonamide]", "ABI1 inhibition": "++++ (inhibition ≧90%)"}
{"smiles": "Cc1cccc(CS(=O)(=O)Nc2ccc3c(c2)CCC(=O)N3C2(C3CC3)CC2)c1", "note": "[A3-153]", "ABI1 inhibition": "+++ (90% >inhibition ≧70%)"}
{"smiles": "CC1CC(N2C(=O)CCc3cc(NS(=O)(=O)Cc4ccc(C(C)(C)C)cc4)ccc32)C1", "note": "(stereo not drawn) [A26-332]", "ABI1 inhibition": "++++ (inhibition ≧90%)"}
{"smiles": "CC1(N2C(=O)CCc3cc(NS(=O)(=O)Cc4ccc(F)cc4)ccc32)CC1", "note": "[A1-158]", "ABI1 inhibition": "++++ (inhibition ≧90%)"}
{"smiles": "O=C1CCc2cc(NS(=O)(=O)Cc3ccc(C(F)(F)F)cc3)ccc2N1C12CC(C1)C2", "note": "[A30-178, N-[1-(Bicyclo[1.1.1]pent-1-yl)-2-oxo-1,2,3,4-tetrahydroquinolin-6-yl]-1-[4-(trifluoromethyl)phenyl]methanesulfonamide]", "ABI1 inhibition": "++++ (inhibition ≧90%)"}
{"smiles": "Cc1ccc(CS(=O)(=O)Nc2ccc3c(c2)CCC(=O)N3C2CC(C)C2)cc1", "note": "(stereo not drawn) [A26-152]", "ABI1 inhibition": "++++ (inhibition ≧90%)"}
{"smiles": "CC1=CC(=O)CC(C)(C)[C@@]1(O)/C=C/C(C)=C\\C(=O)O", "note": "[abscisic acid, reference compound]", "ABI1 inhibition": "++++ (inhibition ≧90%)"}
{"smiles": "Cc1ccc(CS(=O)(=O)Nc2ccc3c(c2)CCC(=O)N3C2(C)CC2)cc1", "note": "[A1-152]", "ABI1 inhibition": "++++ (inhibition ≧90%)"}
{"smiles": "O=C1CCc2cc(NS(=O)(=O)Cc3cccc(F)c3)ccc2N1C12CC(C1)C2", "note": "[A30-159]", "ABI1 inhibition": "+++ (90% >inhibition ≧70%)"}
{"smiles": "O=C1CCc2cc(NS(=O)(=O)Cc3ccc(Cl)cc3)ccc2N1C1CC1C1CC1", "note": "(stereo not drawn) [A16-165]", "ABI1 inhibition": "++++ (inhibition ≧90%)"}
{"smiles": "O=C1CCc2cc(NS(=O)(=O)Cc3ccc(F)cc3)ccc2N1C1CC1C1CC1", "note": "(stereo not drawn) [A16-158]", "ABI1 inhibition": "+++ (90% >inhibition ≧70%)"}
{"smiles": "CC1CC(N2C(=O)CCc3cc(NS(=O)(=O)Cc4cccc(C#N)c4)ccc32)C1", "note": "(stereo not drawn) [A26-182]", "ABI1 inhibition": "++++ (inhibition ≧90%)"}
{"smiles": "Cc1ccc(S(=O)(=O)Nc2ccc3c(c2)CCC(=O)N3C23CC(C2)C3)cc1", "note": "[A30-50]", "ABI1 inhibition": "++ (70% >inhibition ≧50%)"}
{"smiles": "Cc1ccc(CS(=O)(=O)Nc2ccc3c(c2)CCC(=O)N3C23CC(C2)C3)cc1", "note": "[A30-152]", "ABI1 inhibition": "++++ (inhibition ≧90%)"}
{"smiles": "CC(C)(C)c1ccc(CS(=O)(=O)Nc2ccc3c(c2)CCC(=O)N3C2CC2C2CC2)cc1", "note": "(stereo not drawn) [A16-332]", "ABI1 inhibition": "+++ (90% >inhibition ≧70%)"}
{"smiles": "N#Cc1ccc(CS(=O)(=O)Nc2ccc3c(c2)CCC(=O)N3C23CC(C2)C3)cc1", "note": "[A30-181]", "ABI1 inhibition": "++++ (inhibition ≧90%)"}
{"smiles": "O=C1CCc2cc(NS(=O)(=O)Cc3cccc(Cl)c3)ccc2N1C1(C2CC2)CC1", "note": "[A3-166]", "ABI1 inhibition": "+++ (90% >inhibition ≧70%)"}
{"smiles": "CC1CC(N2C(=O)CCc3cc(NS(=O)(=O)Cc4ccc([N+](=O)[O-])cc4)ccc32)C1", "note": "(stereo not drawn) [A26-175]", "ABI1 inhibition": "++++ (inhibition ≧90%)"}
{"smiles": "N#Cc1ccc(CS(=O)(=O)Nc2ccc3c(c2)CCC(=O)N3C2CC3(CCC3)C2)cc1", "note": "[A33-181, 1-(4-Cyanophenyl)-N-[2-oxo-1-(spiro[3.3]hept-2-yl)-1,2,3,4-tetrahydroquinolin-6-yl]methanesulfonamide]", "ABI1 inhibition": "+++ (90% >inhibition ≧70%)"}
{"smiles": "O=C1CCc2cc(NS(=O)(=O)Cc3cc(F)cc(F)c3)ccc2N1C1CC1C1CC1", "note": "(stereo not drawn) [A16-164]", "ABI1 inhibition": "++ (70% >inhibition ≧50%)"}
{"smiles": "CCc1ccc(CS(=O)(=O)Nc2ccc3c(c2)CCC(=O)N3C2(C3CC3)CC2)cc1", "note": "[A3-325]", "ABI1 inhibition": "++++ (inhibition ≧90%)"}
{"smiles": "O=C1CCc2cc(NS(=O)(=O)Cc3ccc(Cl)cc3)ccc2N1C1CC2(CCC2)C1", "note": "[A33-165]", "ABI1 inhibition": "+++ (90% >inhibition ≧70%)"}
{"smiles": "Cc1ccc(CS(=O)(=O)Nc2ccc3c(c2)CCC(=O)N3C2CC2C2CC2)cc1", "note": "(stereo not drawn) [A16-152, N-{1-[1,1′-bi(cyclopropyl)-2-yl]-2-oxo-1,2,3,4-tetrahydroquinolin-6-yl}-1-(4-methylphenyl)methanesulfonamide]", "ABI1 inhibition": "++++ (inhibition ≧90%)"}
{"smiles": "O=C1CCc2cc(NS(=O)(=O)Cc3cccc(Cl)c3)ccc2N1C12CC(C1)C2", "note": "[A30-166]", "ABI1 inhibition": "++ (70% >inhibition ≧50%)"}
{"smiles": "CC1CC(N2C(=O)CCc3cc(NS(=O)(=O)Cc4ccc(Cl)cc4)ccc32)C1", "note": "(stereo not drawn) [A26-165, 1-(4-Chlorophenyl)-N-[1-(3-methylcyclobutyl)-2-oxo-1,2,3,4-tetrahydroquinolin-6-yl]methanesulfonamide]", "ABI1 inhibition": "++++ (inhibition ≧90%)"}
